From US20240383913A1, “THIOPHENE RING COMPOUND, PREPARATION METHOD THEREFOR AND APPLICATION THEREOF” (CENTER FOR EXCELLENCE IN MOLECULAR CELL SCIENCE, CHINESE …, priority 2021, published 2024) come the findings set out here.

Molecules are shown by their SMILES. Bounds are passed on as bounds.

Experiment [1] concerns the target T1, dopamine D2 receptors (Homo sapiens (Human), UniProt P14416). Description: Affinity for dopamine D2 receptors, radioligand competition with [3H]-Methylspiperone. Type of experiment: binding. The following applies: 293T membrane transiently expressing D2.
Protocol: The affinity of the compounds of the present disclosure for the dopamine D2 receptors was determined by the method of radioligand competition experiment. In the first step, a cell membrane component containing specific dopamine D2 receptors was prepared. A 10 cm culture dish was used for transfection with 10 ng of the dopamine D2 receptors and 40 μL of polyethylenimine (PEI hereafter). After 48 hours, the 10 cm culture dish was taken out from the cell culture incubator and the cultured cells had expressed the dopamine D2 receptors. A vacuum pump was used to suck off the culture medium, 3 mL of lysis buffer was added to each culture dish, and the cells were placed in a 4° C. cold room for 10 minutes. After the cells were detached, the cells were transferred to a 15 mL centrifuge tube and centrifuged at 1500 rpm for 5 minutes at 4° C., and the supernatant was discarded. The cell pellet was transferred to a tissue homogenizer, and 3 mL of lysis buffer was added and fully ground until the cells were broken. Then, cell suspension was equally aliquoted into several EP tubes, centrifuged at 12000 rpm for 5 minutes at 4° C., and the supernatant was discarded. The precipitate was the cell membrane component containing the dopamine D2 receptors. […] First, a standard binding buffer was added to the cell membrane component containing the dopamine D2 receptors, and the cell membrane was disrupted and resuspended with an electric tissue homogenizer. 30 μL of membrane protein suspension was added to each well of a 96-well plate. Then, 30 μL of different drugs were added to the 96-well plate sequentially from bottom to top to ensure that the final drug concentrations were 10^−5 M, 10^−6 M, 10^−7 M, 10^−8 M, 10^−9 M, and 0 M, with two replicates per treatment. Next, 30 μL of [3H]-Methylspiperone was added to each well of the 96-well plate. The plate was incubated for 2 hours at room temperature in the dark. Detection was conducted. The machine readout value reflected the amount of [3H]-Methylspiperone bound on the membrane, and after further data processing, the affinity Ki values of different compounds for the dopamine D2 receptors were obtained.
Experiment [2] has as its target T2, 5-HT1A receptor (Homo sapiens (Human), UniProt P08908). Description: 5-HT1A receptor Gαi1 BRET (G protein trimer dissociation).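 On all read-outs here: cells transiently co-expressing 5-HT1A receptor, luciferase-tagged Gαi1, Gβ3 and GFP-tagged Gγ9, seeded in 96-well plates for BRET measurement of G protein signaling.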 Type of experiment: cell-based. Conditions: 5-HT1A receptor, G protein pathway; for EC50: read-out: Gαi1 BRET EC50. On the technique in general: BRET reads energy transfer from a luciferase to a nearby fluorophore.
Protocol: (§1) The affinity of the compounds of the present disclosure for the 5-HTIA receptors was determined by the method of radioligand competition experiment. In the first step, a cell membrane component containing specific 5-HTIA receptor was prepared. A 10 cm culture dish was used for transfection with 10 ng of the 5-HTIA receptor and 40 μL of PEI. After 48 hours, the 10 cm culture dish was taken out from the cell incubator and the cultured cells had expressed the 5-HTIA receptor. A vacuum pump was used to suck off the culture medium, 3 mL of lysis buffer was added to each culture dish, and the cells were placed in a 4° C. cold room for 10 minutes. After the cells were detached, the cells were transferred to a 15 mL centrifuge tube and centrifuged at 1500 rpm for 5 minutes at 4° C., and the supernatant was discarded. The cell pellet was transferred to a tissue homogenizer, and 3 mL of lysis buffer was added and fully ground until the cells were broken. Then, cell suspension was equally aliquoted into several EP tubes, centrifuged at 12000 rpm for 5 minutes at 4° C., and the supernatant was discarded. The precipitate was the cell membrane component containing the 5-HT1A receptor. […] First, a standard binding buffer was added to the cell membrane component containing the 5-HT1A receptor, and the cell membrane was disrupted and resuspended with an electric tissue homogenizer. 30 μL of membrane protein suspension was added to each well of a 96-well plate. Then, 30 μL of different drugs were added to the 96-well plate sequentially from bottom to top to ensure that the final drug concentrations were 10^−5 M, 10^−6 M, 10^−7 M, 10^−8 M, 10^−9 M, and 0 M, with two replicates per treatment. Next, 30 μL of [3H]-LSD was added to each well of the 96-well plate. The plate was incubated for 2 hours at room temperature in the dark. Detection was conducted. The machine readout value reflected the amount of [3H]-LSD bound on the membrane, and after further data processing, the affinity Ki values of different compounds for the 5-HTIA receptor were obtained. To examine the downstream G protein signaling pathway mediated by 5-HTIA receptors, on the first day, a 6 cm culture dish was used for transfection with 1 μg of 5-HTIA receptors, 1 μg of Gαi1 containing C-terminal seaweed luciferase (Gαi1-Rluc), 1 μg of Gβ3, 1 μg of Gγ9 containing C-terminal green fluorescent protein (Gγ9-GFP), and 16 μL of PEI. The next day, the confluent cells of a 6 cm culture dish were digested and reseeded into a 96-well plate with 100 μL of culture medium was added to each well. On the third day, the drugs were added for test. The 96-well plate was taken out from the cell incubator to decant the culture medium, 40 μL of the substrate coelenterazine 400a (final concentration of 5 μM) was added to each well, and then 20 μL of different drugs were added sequentially from left to right to ensure that the final concentration of the drug decreased gradually from bottom to top, with two replicates per treatment. Finally, the prepared samples were loaded on machine for test. The machine readout value reflected the dissociation of G protein trimer, and thereby indicated the degree of activation of the G protein signaling pathway downstream of the 5-HTIA receptors.
In experiment [3] the target is T3, 5-HT2A receptor (Homo sapiens (Human), UniProt P28223). Nature of the experiment: Affinity for 5-HT2A receptors, radioligand competition with [3H]-ketanserin. The following applies: 293T membrane transiently expressing 5-HT2A. Type of experiment: binding. Background: In a radioligand displacement assay an active substance lowers the binding of a labelled ligand.
T3 sequence (P28223 whole entry): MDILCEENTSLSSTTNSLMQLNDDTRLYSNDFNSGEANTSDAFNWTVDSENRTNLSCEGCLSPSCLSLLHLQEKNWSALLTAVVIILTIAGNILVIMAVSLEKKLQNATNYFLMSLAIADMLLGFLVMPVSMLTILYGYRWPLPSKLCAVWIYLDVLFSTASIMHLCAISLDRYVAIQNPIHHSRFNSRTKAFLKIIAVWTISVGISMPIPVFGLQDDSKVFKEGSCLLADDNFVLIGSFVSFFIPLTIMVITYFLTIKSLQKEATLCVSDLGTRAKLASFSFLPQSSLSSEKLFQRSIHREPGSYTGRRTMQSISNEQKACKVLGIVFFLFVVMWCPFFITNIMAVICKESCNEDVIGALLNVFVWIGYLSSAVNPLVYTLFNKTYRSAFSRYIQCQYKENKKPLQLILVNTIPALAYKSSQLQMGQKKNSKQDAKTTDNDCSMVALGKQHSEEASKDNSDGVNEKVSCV
Protocol: The affinity of the compounds of the present disclosure for the 5-HT2A receptors was determined by the method of radioligand competition experiment. In the first step, a cell membrane component containing specific 5-HT2A receptor was prepared. A 10 cm dish was used for transfection with 10 ng of the 5-HT2A receptor and 40 μL of PEI. After 48 hours, the 10 cm dish was taken out from the cell incubator and the cultured cells had expressed the 5-HT2A receptor. A vacuum pump was used to suck off the culture medium, 3 mL of lysis buffer was added to each culture dish, and the cells were placed in a 4° C. cold room for 10 minutes. After the cells were detached, the cells were transferred to a 15 mL centrifuge tube and centrifuged at 1500 rpm for 5 minutes at 4° C., and the supernatant was discarded. The cell pellet was transferred to a tissue homogenizer, and 3 mL of lysis buffer was added and fully ground until the cells were broken. Then, cell suspension was equally aliquoted into several EP tubes, centrifuged at 12000 rpm for 5 minutes at 4° C., and the supernatant was discarded. The precipitate was the cell membrane component containing the 5-HT2A receptor. […] First, a standard binding buffer was added to the cell membrane component containing the 5-HT2A receptor, and the cell membrane was disrupted and resuspended with an electric tissue homogenizer. 30 μL of membrane protein suspension was added to each well of a 96-well plate. Then, 30 μL of different drugs were added to the 96-well plate sequentially from bottom to top to ensure that the final drug concentrations were 10^−5 M, 10^−6 M, 10^−7 M, 10^−8 M, 10^−9 M, and 0 M, with two replicates per treatment. Next, 30 μL of [3H]-ketanserin was added to each well of the 96-well plate. The plate was incubated for 2 hours at room temperature in the dark. Detection was conducted. The machine readout value reflected the amount of [3H]-ketanserin bound on the membrane, and after further data processing, the affinity Ki values of different compounds for the 5-HT2A receptor were obtained.
For experiment [4], the target named is T2, 5-HT1A receptor. Nature of the experiment: Affinity for 5-HT1A receptors, radioligand competition with [3H]-LSD.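 Further: membranes from cells transiently transfected with 5-HT1A receptor, bound [3H]-LSD displaced by compound at 10^-9 to 10^-5 M, 2 h incubation at room temperature in the dark.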 Conditions: 293T membrane transiently expressing 5-HT1A; [3H]-LSD; read-out: 5-HT1A affinity Ki. Type of experiment: binding.
Protocol: as §1
Experiment [5] addresses T1, dopamine D2 receptors. Nature of the experiment: Dopamine D2 receptor Gαi1 BRET (G protein trimer dissociation).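 On all read-outs here: transfected cells co-expressing D2 receptor, Gαi1-Rluc, Gβ3 and Gγ9-GFP, BRET with coelenterazine 400a at 5 µM read as G protein trimer dissociation, graded drug concentrations in duplicate.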 Conditions: for EC50: read-out: Gαi1 BRET EC50; for Emax: read-out: Gαi1 BRET (Emax %). Type of experiment: cell-based.
Protocol: (§2) To examine the downstream G protein signaling pathway mediated by dopamine D2 receptors, on the first day, a 6 cm culture dish was used for transfection with 1 μg of dopamine D2 receptors, 1 μg of Gαi1 containing a C-terminal seaweed luciferase (Gαi1-Rluc), 1 μg of Gβ3, 1 μg of Gγ9 containing C-terminal green fluorescent protein (Gγ9-GFP), and 16 μL of PEI. At the same time, in order to examine the downstream β-arrestin2 signaling pathway mediated by dopamine D2 receptors, on the first day, a 6 cm culture dish was used for transfection with 500 μg of dopamine D2 receptors containing C-terminal seaweed luciferase (D2-Rluc), 500 μg of G protein-coupled receptor kinase 2 (GRK2), 2500 μg of β-arrestin2 containing N-terminal green fluorescent protein (GFP2-ARRB2) mixed with 14 μL of PEI. The next day, the confluent cells of a 6 cm culture dish were digested and reseeded into a 96-well plate with 100 μL of culture medium added to each well. On the third day, the drugs were added for test. The 96-well plate was taken out from the cell incubator to decant the culture medium, 40 μL of the substrate coelenterazine 400a (final concentration of 5 μM) was added to each well, and then 20 μL of different drugs were added sequentially from left to right to ensure that the final concentration of the drug decreased gradually from bottom to top, with two replicates per treatment. Finally, the prepared samples were loaded on machine for test. The machine readout value reflected the recruitment of β-arrestin2 to the membrane or the dissociation of G protein trimer. The former indicated the degree of activation of the β-arrestin2 signaling pathway downstream of the dopamine D2 receptors, and the latter indicated the degree of activation of the G protein signaling pathway downstream of the dopamine D2 receptors.
Experiment [6] deals with T1, dopamine D2 receptors. Nature of the experiment: Dopamine D2 receptor β-arrestin2 BRET (recruitment).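 On all read-outs here: cells co-expressing Rluc-fused D2 receptor, GRK2 and GFP2-fused β-arrestin2, BRET read with coelenterazine 400a after adding drug over a concentration series, in duplicate wells.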 The experiment is classed as cell-based. Conditions: for EC50: read-out: β-arrestin2 BRET EC50; for Emax: read-out: β-arrestin2 BRET (Emax %).
Protocol: as §2
Experiment [7] deals with T3, 5-HT2A receptor. Nature of the experiment: 5-HT2A receptor Gαq BRET (G protein trimer dissociation).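 On all read-outs here: cells transfected with 5-HT2A receptor, Gαq-Rluc, Gβ3 and Gγ9-GFP, BRET read with coelenterazine 400a (5 µM) across a compound dilution series in duplicate.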 Type of experiment: cell-based. Conditions: for EC50: 5-HT2A receptor, G protein pathway, read-out: Gαq BRET EC50; for Emax: read-out: Gαq BRET (Emax %).
Protocol: (§3) To examine the downstream G protein signaling pathway mediated by 5-HT2A receptors, on the first day, a 6 cm culture dish was used for transfection with 1 μg of 5-HT2A receptors, 1 μg of Gαq containing C-terminal seaweed luciferase (Gαq-Rluc), 1 μg of Gβ3, 1 μg of Gγ9 containing C-terminal green fluorescent protein (Gγ9-GFP), and 16 μL of PEI. At the same time, in order to examine the downstream β-arrestin2 signaling pathway mediated by 5-HT2A receptors, on the first day, a 6 cm culture dish was used for transfection with 500 μg of 5-HT2A receptors containing C-terminal seaweed luciferase (5-HT2A-Rluc), 500 μg of G protein-coupled receptor kinase 2 (GRK2), 2500 μg of β-arrestin2 containing N-terminal green fluorescent protein (GFP2-ARRB2), and 14 μL of PEI. The next day, the confluent cells of a 6 cm culture dish were digested and reseeded into a 96-well plate with 100 μL of culture medium was added to each well. On the third day, the drugs were added for test. The 96-well plate was taken out from the cell incubator to decant the culture medium, 40 μL of the substrate coelenterazine 400a (final concentration of 5 μM) was added to each well, and then 20 μL of different drugs were added sequentially from left to right to ensure that the final concentration of the drug decreased gradually from bottom to top, with two replicates per treatment. Finally, the prepared samples were loaded on machine for test. The machine readout value reflected the recruitment of β-arrestin2 to the membrane or the dissociation of G protein trimer. The former indicated the degree of activation of the β-arrestin2 signaling pathway downstream of the 5-HT2A receptors, and the latter indicated the degree of activation of the G protein signaling pathway downstream of the 5-HT2A receptors.
Experiment [8] addresses T3, 5-HT2A receptor. Description: 5-HT2A receptor β-arrestin2 BRET (recruitment).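 Further: cells co-expressing Rluc-tagged 5-HT2A receptor, GRK2 and GFP2-tagged β-arrestin2, read by BRET with coelenterazine 400a (5 µM) across graded drug concentrations in duplicate, signal reflecting β-arrestin2 membrane recruitment.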 Type of experiment: cell-based. Conditions: 5-HT2A receptor, β-arrestin2 pathway.
Protocol: as §3
[9] abbreviates: D2 receptor, β-arrestin2 pathway.

T1 sequence (P14416 whole entry): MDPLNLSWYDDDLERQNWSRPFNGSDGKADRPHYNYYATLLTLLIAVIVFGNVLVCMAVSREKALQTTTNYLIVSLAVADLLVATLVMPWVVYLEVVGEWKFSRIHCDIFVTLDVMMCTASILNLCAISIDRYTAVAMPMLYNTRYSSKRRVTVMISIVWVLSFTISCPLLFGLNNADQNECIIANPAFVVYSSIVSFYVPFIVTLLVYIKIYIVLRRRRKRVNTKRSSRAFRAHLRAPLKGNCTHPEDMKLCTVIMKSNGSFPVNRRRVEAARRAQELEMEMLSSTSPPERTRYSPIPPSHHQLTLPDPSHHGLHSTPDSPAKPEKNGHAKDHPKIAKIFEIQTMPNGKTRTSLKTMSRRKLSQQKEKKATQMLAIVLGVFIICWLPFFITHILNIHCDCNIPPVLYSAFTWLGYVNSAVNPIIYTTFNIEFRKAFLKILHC
T2 sequence (P08908 whole entry): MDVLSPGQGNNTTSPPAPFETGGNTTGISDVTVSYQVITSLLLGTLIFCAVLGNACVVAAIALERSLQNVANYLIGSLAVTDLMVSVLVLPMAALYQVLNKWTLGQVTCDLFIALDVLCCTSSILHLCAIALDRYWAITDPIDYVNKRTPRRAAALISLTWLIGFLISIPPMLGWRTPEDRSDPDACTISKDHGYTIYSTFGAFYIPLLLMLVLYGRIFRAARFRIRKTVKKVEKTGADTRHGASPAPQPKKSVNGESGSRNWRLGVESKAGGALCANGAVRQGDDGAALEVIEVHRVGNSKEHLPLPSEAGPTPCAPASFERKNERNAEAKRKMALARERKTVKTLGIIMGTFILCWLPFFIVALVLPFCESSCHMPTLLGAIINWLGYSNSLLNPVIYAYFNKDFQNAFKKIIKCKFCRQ

Broadly, the Ki is the equilibrium dissociation constant of an inhibitor or competing ligand from its target. By EC50 is commonly meant the concentration needed to bring the measured effect to its halfway point. As for `CN(C)C(=O)N[C@H]1CC[C@H](CCN2CCN3c4cccc5scc(c45)C[C@@H]3C2)CC1` [(+)-I-27], the Ki in experiment [1] is over 10000 nM; in experiment [3] it was 450 nM; in experiment [4], 170 nM. Besides, the “Gαi1 BRET (Emax %)” value is “(60%)” in experiment [2] and “(69.54%)” in experiment [5] (D2 receptor, G protein pathway). The EC50 in experiment [2] came to 206 nM; in experiment [5] (D2 receptor, G protein pathway), 9.16 nM; in experiment [6] (setting [9]), 16 nM. In experiment [6] (setting [9]), the “β-arrestin2 BRET (Emax %)” value is “(45.78%)”.
In general, Emax refers to the greatest response seen or fitted, relative to the assay's reference. On to `c1cc2c3c(csc3c1)CC1CN(CC3CC3)CCN21` (centres unmarked) [Compound I-4, 8-(Cyclopropylmethyl)-6,6a,7,8,9,10-Hexahydropyrazino[1,2-a]Thieno [4,3,2-De]Quinoline], for which the Ki in experiment [1] amounted to 320 nM; in experiment [4], 590 nM. The Emax in experiment [2] was found to be 69%; in experiment [5] (D2 receptor, G protein pathway), 25%; in experiment [6] (setting [9]), 16.4%. Moreover, the EC50 in experiment [2] was found to be 12800 nM; in experiment [5] (D2 receptor, G protein pathway), 36.3 nM; in experiment [6] (setting [9]), 11.2 nM.
Consider `c1ccc(-c2cccc(CN3CCN4c5cccc6scc(c56)CC4C3)c2)cc1` (centres unmarked) [Compound I-7, 8-([1, l′-Biphenyl]-3-Ylmethyl)-6,6a, 7,8,9, 10-Hexahydropyrazino[1,2-a]Thieno [4,3,2-De]Quinoline], for which, in experiment [7], the 50% effective concentration (EC50) stood at 140 nM and the maximal response (Emax) is 36.9%. In experiment [4], the Ki worked out at 39300 nM.
For `O=C1NCCN1c1cccc(CN2CCN3c4cccc5scc(c45)CC3C2)c1` (centres unmarked) [Compound I-9, 1-(3-((6a,7,9,10-Tetrahydropyrazino[1,2-a]Thieno [4,3,2-De]Quinolin-8 (6H)-Yl)Methyl)Phenyl) Imidazolidin-2-One], the results for the inhibitory constant (Ki) in experiment [1], in experiment [3] and in experiment [4] were 800 nM, 690 nM and 5460 nM, respectively. Moreover, the concentration giving a half-maximal response (EC50) in experiment [7] worked out at 747 nM; in experiment [2], 14400 nM; in experiment [5] (D2 receptor, G protein pathway) it was 281 nM; in experiment [6] (setting [9]) it was 28.6 nM. Besides, the maximum response (Emax) in experiment [7] was found to be 25%; in experiment [2], 55%; in experiment [5] (D2 receptor, G protein pathway), 23.1%; in experiment [6] (setting [9]), 24.2%.
On to `O=C(CN1CCN2c3cccc4scc(c34)CC2C1)c1ccc(F)cc1` (centres unmarked) [Compound I-10, 1-(4-Fluorophenyl)-2-(6a,7,9,10-Tetrahydropyrazino[1,2-a]Thieno [4,3,2-De]Quinolin-8 (6H)-Yl) Ethan-1-One], for which the Ki in experiment [1] is 2060 nM; in experiment [4], 970 nM. Moreover, the Emax came to 110% in experiment [7]; 71% in experiment [2]; 71.6% in experiment [8]; 17.1% in experiment [5]; 21.5% in experiment [6]. The 50% effective concentration (EC50) in experiment [2] amounted to 7200 nM; in experiment [5] (D2 receptor, G protein pathway), 796 nM; in experiment [6] (setting [9]), 14.3 nM.
As to `O=C(CCCN1CCN2c3cccc4scc(c34)CC2C1)c1ccc(F)cc1` (centres unmarked) [Compound I-11, 1-(4-Fluorophenyl)-4-(6a,7,9,10-Tetrahydropyrazino[1,2-a]Thieno [4,3,2-De]Quinolin-8 (6H)-Yl) Butan-1-One], the Ki in experiment [1] stood at 470 nM; in experiment [3], 320 nM; in experiment [4], 4540 nM. The molecule further yielded an Emax in experiment [2] of 28%. Also, in experiment [2], the 50% effective concentration (EC50) was 3870 nM.
With `O=C(NCCN1CCN2c3cccc4scc(c34)CC2C1)c1ccc(F)cc1` (centres unmarked) [Compound I-12, 4-Fluoro-N-(2-(6a,7,9,10-Tetrahydropyrazino[1,2-a]Thieno [4,3,2-De]Quinolin-8 (6H)-Yl)Ethyl)Benzamide], the Ki in experiment [1] is 1210 nM; in experiment [3] it was 1520 nM; in experiment [4], 590 nM. In addition, the results for the Emax in experiment [2] and in experiment [8] were 93% and 5.7%, respectively. The EC50 in experiment [2] was found to be 1320 nM; in experiment [8] (read-out: β-arrestin2 BRET EC50), 5240 nM.
With `c1cc2c3c(csc3c1)CC1CN(CCCOc3ccc4c(c3)OCO4)CCN21` (centres unmarked) [Compound I-16, 8-(3-(Benzo[d][1,3]Dioxol-5-Yloxy) Propyl)-6,6a, 7,8,9,10-Hexahydropyrazino[1,2-a]Thieno [4,3,2-De]Quinoline], the Ki is 1550 nM in experiment [1], over 10000 nM in experiment [3] and 560 nM in experiment [4]. Further, the 50% effective concentration (EC50) in experiment [7] was 340 nM; in experiment [2], 2720 nM; in experiment [5] (D2 receptor, G protein pathway) it was 44.8 nM; in experiment [6] (setting [9]), 289 nM. In addition, the Emax was found to be 19.5% in experiment [7], 88% in experiment [2], 57.9% in experiment [5] and 37.7% in experiment [6].
In the case of `O=C1CCc2ccc(OCCCN3CCN4c5cccc6scc(c56)CC4C3)cc2N1` (centres unmarked) [Compound I-18, 7-(3-(6a,7,9,10-Tetrahydropyrazino[1,2-a]Thieno [4,3,2-De]Quinolin-8 (6H)-Yl) Propoxy)-3,4-Dihydroquinolin-2 (1H)-One], the figures for the inhibition constant (Ki) in experiment [1], in experiment [3] and in experiment [4] were 270 nM, 160 nM and 10 nM, respectively. For the same molecule, the Emax in experiment [2] is 82%; in experiment [5] it was 91.3%; in experiment [6], 71.9%. Besides, the EC50 in experiment [2] turned out to be 696 nM; in experiment [5] (D2 receptor, G protein pathway), 33.9 nM; in experiment [6] (setting [9]) it was 279 nM.
As to `O=c1ccc2ccc(OCCCCN3CCN4c5cccc6scc(c56)CC4C3)cc2[nH]1` (centres unmarked) [Compound I-19, 7-(4-(6a,7,9,10-Tetrahydropyrazino[1,2-a]Thieno [4,3,2-De]Quinolin-8 (6H)-Yl) Butoxy) Quinolin-2 (1H)-One], the Ki in experiment [1] came to 10 nM; in experiment [3] it was 1410 nM; in experiment [4], 30 nM. Moreover, the EC50 in experiment [7] was determined as 1440 nM; in experiment [2] it was 3670 nM; in experiment [5] (D2 receptor, G protein pathway), 8.26 nM; in experiment [6] (setting [9]), 43.9 nM. The Emax in experiment [7] came to 15.6%; in experiment [2], 81%; in experiment [5] it was 74.6%; in experiment [6], 64.5%.
On to `O=C1CCc2ccc(OCCCCN3CCN4c5cccc6scc(c56)CC4C3)cc2N1` (centres unmarked) [Compound I-20, 7-(4-(6a,7,9,10-Tetrahydropyrazino[1,2-a]Thieno [4,3,2-De]Quinolin-8 (6H)-Yl) Butoxy)-3,4-Dihydroquinolin-2 (1H)-One], for which the inhibition constant (Ki) in experiment [1] was 30 nM; in experiment [3], 640 nM; in experiment [4], 160 nM. Besides, the EC50 in experiment [7] worked out at 5590 nM; in experiment [2] it was 1540 nM; in experiment [5] (D2 receptor, G protein pathway), 107 nM; in experiment [6] (setting [9]) it was 464 nM. Further, the Emax in experiment [7] was determined as 17.8%; in experiment [2] it was 72%; in experiment [5], 64%; in experiment [6], 35.6%.
`c1cc2c3c(csc3c1)CC1CN(CCCCOc3ccc4scnc4c3)CCN21` (centres unmarked) [Compound I-21, 8-(4-(Benzo[d]Thiazol-5-Yloxy)Butyl)-6,6a,7,8,9,10-Hexahydropyrazino[1,2-a]Thieno [4,3,2-De]Quinoline]: the Ki in experiment [1] is 7180 nM; in experiment [3] it was over 10000 nM; in experiment [4] it was 3220 nM. The EC50 was found to be 4380 nM in experiment [7]; 8180 nM in experiment [2]; 146 nM in experiment [5] (D2 receptor, G protein pathway); 233 nM in experiment [6] (setting [9]). For the same molecule, the maximal effect (Emax) in experiment [7] came to 16.6%; in experiment [2], 68%; in experiment [5], 54%; in experiment [6] it was 32.6%.
Turning to `O=C1c2ccccc2CCCN1CCCCN1CCN2c3cccc4scc(c34)CC2C1` (centres unmarked) [Compound I-25, 2-(4-(6a,7,9,10-Tetrahydropyrazino[1,2-a]Thieno [4,3,2-De]Quinolin-8 (6H)-Yl)Butyl)-2,3,4,5-Tetrahydro-1H-Benzo[c]Azepin-1-One], the Ki worked out at 100 nM in experiment [1], 300 nM in experiment [3] and 770 nM in experiment [4]. Moreover, the EC50 in experiment [7] came to 969 nM; in experiment [2], 1320 nM; in experiment [5] (D2 receptor, G protein pathway), 27.8 nM; in experiment [6] (setting [9]), 61.5 nM. Further, the maximal effect (Emax) in experiment [7] was determined as 17.8%; in experiment [2], 82%; in experiment [5], 67.9%; in experiment [6], 49.2%.
`O=C1[C@H]2CCCC[C@H]2C(=O)N1CCCCN1CCN2c3cccc4scc(c34)CC2C1` (some centres unmarked) [Compound I-26]: the 50% effective concentration (EC50) in experiment [7] worked out at 339 nM; in experiment [2], 489 nM; in experiment [5] (D2 receptor, G protein pathway), 573 nM; in experiment [6] (setting [9]), 44.8 nM. The maximal effect (Emax) worked out at 26% in experiment [7], 88% in experiment [2], 47.9% in experiment [5] and 19.8% in experiment [6]. Besides, in experiment [4], the inhibition constant Ki stood at 400 nM.
As to `O=C(N[C@H]1CC[C@H](CCN2CCN3c4cccc5scc(c45)CC3C2)CC1)N1CCCC1` (stereo partly drawn) [Compound I-28, N-(4-(2-(6a,7,9,10-Tetrahydropyrazino[1,2-a]Thieno [4,3,2-De]Quinolin-8 (6H)-Yl)Ethyl) Trans-Cyclohexyl) Pyrrolidine-1-Carboxamide], the Ki in experiment [1] turned out to be 80 nM; in experiment [3] it was 520 nM; in experiment [4], 50 nM. In addition, the EC50 stood at 184 nM in experiment [7]; 142 nM in experiment [2]; 18 nM in experiment [5] (D2 receptor, G protein pathway); 38.7 nM in experiment [6] (setting [9]). In addition, the Emax was determined as 12.5% in experiment [7], 59% in experiment [2], 30.7% in experiment [5] and 34.2% in experiment [6].
